Data as given in patent US20080234363A1, “Antitumoral Compounds” (PHARMA MAR, S.A., priority 2005, published 2008).

Key:
CD-1 male mice = experiment: Multiple-administration dose range finding in mice (MTMD); type: in vivo
Description: The finality of this assay was to determine the maximum tolerated multiple dose (MTMD) in mice by a multiple administration of the drug.
CD-1 male mice were used for this study, weighing ca. 25 g were randomly allocated to several dosing groups. Animals received a multiple doses by either intravenous or extravascular (intraperitoneal) route. […] Mortality was daily recorded. The MTMD was determined based on the mortality found in each dose level, calculated when mortality vs. dose is 0%.

[1] = tested on: EGFR intracellular signaling (AP-1 activity); experiment: EGFR signalling inhibition assay (AP-1 luciferase reporter, HeLa-AP1); type: cell-based; settings: Homo sapiens; HeLa-AP1 cells, EGF 25 ng/mL stimulation, 18 hours
Text: In this assay, the signal transduction pathway triggered by the activated Epidermal Growth Factor (EGF) membrane receptor is indirectly quantified using an EGF-responsive, API-mediated, luciferase reporter system.
HeLa-AP1, a subclone of HeLa cell line (human cervix carcinoma, ATCC# CCL-2) stably transfected with a construct containing the luciferase reporter gene under the control of the proximal promoter of the human collagenase-3 gene (consensus AP-1 response element TGACTCA at positions −56/−50) were used. Cells were maintained in DMEM supplemented with 10% FCS and 100 units/mL penicillin and streptomycin at 37° C. and 5% CO2. HeLa-AP1 cells were pre-treated with the indicated compounds for 30 min before stimulation with EGF (25 ng/mL). After further 18 hours incubation, cell survival was estimated, for normalisation, by loading cells for 30 min with the vital fluorescent probe calcein-AM (0.5 μM). Fluorescence was quantified using a 1420 Victor^2 plate multilabel counter (Wallac). After that, cells were lysed and assayed for luciferase activity using the Bright-Glo system (Promega) and a 1450 Microbeta plate luminescence counter (Wallac-Trilux). Results were expressed as percentage of AP-1 activity inhibition as compared to control, untreated cells.

cytochrome b-cl segment = target: T1, cytochrome b-cl segment (Bos taurus, UniProt P00157+P13272); settings: bovine heart submitochondrial particles; cited from earlier work
T1 construct: bovine heart submitochondrial particles at the site of the cytochrome b-cl segment; host or cells: bovine heart submitochondrial particles

[2] = tested on: photosynthetic electron transport; settings: cited from earlier work
A549 = experiment: SRB antitumor screening, A549; type: cell-based; settings: for CC50 / GI50: Homo sapiens; for CC50: A549, 48 h, read-out: LC50; for GI50 / TGI: NSCL A549, SRB, 48 hours exposure
Text: (§1) The finality of these assays was to interrupt the growth of a “in vitro” tumor cell culture by means of a continued exhibition of the cells to the sample to be testing.
(§2) A colorimetric type of assay, using sulforhodamine B (SRB) reaction has been adapted for a quantitative measurement of cell growth and viability [following the technique described by Philip Skehan et al. (1990), New colorimetric cytotoxicity assay for anticancer drug screening, J. Natl. Cancer Inst., 82:1107-1112].
(§3) This form of assay employed 96 well cell culture microplates of 9 mm diameter (Faircloth et al. Methods in cell science, (1988), 11(4), 201-205; Mosmann, Journal of. Immunological Methods (1983), 65(1-2), 55-63. Most of the cell lines were obtained from American Type Culture Collection (ATCC) derived from different human cancer types.
(§4) Cells were maintained in RPMI 1640 10% FBS, supplemented with 0.1 g/L penicillin and 0.1 g/L streptomycin sulphate and then incubated at 37° C., 5% CO2 and 98% humidity. For the experiments, cells were harvested from subconfluent cultures using trypsin and resuspended in fresh medium before plating.
(§5) Cells were seeded in 96 well microtiter plates, at 5×10^3 cells per well in aliquots of 195 μL medium, and they were allowed to attach to the plate surface by growing in drug free medium for 18 hours. Afterward, samples were added in aliquots of 5 μL in a ranging from 10 to 10^−8 μg/mL, dissolved in DMSO:EtOH:PBS (0.5:0.5:99). After 48 hours exposure, the antitumor effect were measured by the SRB methodology: cells were fixed by adding 50 μL of cold 50% (wt/vol) trichloroacetic acid (TCA) and incubated for 60 minutes at 4° C. Plates were washed with deionised water and dried. One hundred μL of SRB solution (0.4% wt/vol in 1% acetic acid) was added to each microtiter well and incubated for 10 minutes at room temperature. Unbound SRB was removed by washing with 1% acetic acid. Plates were air dried and bound stain was solubilized with Tris buffer. Optical densities were read on an automated spectrophotometric plate reader at a single wavelength of 490 nm.
(§6) The values for mean +/−SD of data from triplicate wells were calculated. Some parameters for cellular responses could be calculated: GI=growth inhibition, TGI=total growth inhibition (cytostatic effect) and LC=cell killing (cytotoxic effect).

MDA-MB-231 = experiment: SRB antitumor screening, MDA-MB-231; type: cell-based, human; settings: Breast MDA-MB-231, SRB, 48 hours exposure; for GI50: Homo sapiens
Text: as §1, §2, §3, §4
as §5, with “One hundred μL of SRB solution (0.4% wt/vol in 1% acetic acid) was added to each microtiter well and incubated for 10 minutes at room temperature. Unbound SRB was removed by washing with 1% acetic acid. Plates were air dried and bound stain was solubilized with Tris buffer.” left out
as §6

[3] = Single-administration dose range finding in mice (MTD); settings: mouse, in vivo; CD-1 male mice, single intravenous administration, vehicle micelles
Description: The finality of this assay was to determine the maximum tolerated dose (MTD) in mice by a single administration of the drug.
CD-1 male mice were used for this study, weighing ca. 25 g were randomly allocated to several dosing groups. Animals received a single intravenous administration of Stigmatellin A (CAS Number: 91682-96-1, purchased from Fluka (Ref: 85865)) dosed into the lateral vein of the tail. […] Mortality was recorded daily. The Maximum Tolerated Dose (MTD) was determined based on the mortality found in each dose level, calculated when mortality vs. dose is 0%.

HT29 = experiment: SRB antitumor screening, HT29; type: cell-based, human; settings: Colon HT29, SRB, 48 hours exposure; for GI50: Homo sapiens, HT-29
Text: as §1, §2, §3, §4
as §5, with “One hundred μL of SRB solution (0.4% wt/vol in 1% acetic acid) was added to each microtiter well and incubated for 10 minutes at room temperature. Unbound SRB was removed by washing with 1% acetic acid. Plates were air dried and bound stain was solubilized with Tris buffer.” left out
as §6

SMILES | MTMD (CD-1 male mice; ip/5DD, liposomes at 0.035 mg/mL) [mg/kg] | MTMD (CD-1 male mice; iv/5DD, liposomes at 0.096 mg/mL) [mg/kg] | IC50 [1] [nM] | inhibitory potency (cytochrome b-cl segment) | inhibition of photosynthetic electron transport [2] | CC50 (A549) [nM] | GI50 (A549) [nM] | TGI (A549) [Molar] | GI50 (MDA-MB-231) [nM] | MTD at 4 days [3] [mg/kg] | GI50 (HT29) [nM] | TGI (MDA-MB-231) [Molar] | TGI (HT29) [Molar]
C/C=C(C)/C=C/C=C/C(OC)C(C)C(OC)C(C)CCc1oc2c(O)c(OC)cc(OC)c2c(=O)c1C (stereo not shown) [Stigmatellin A] | 0.28 | 0.14 | 9720 | identical with that of antimycin and myxothiazol | powerful inhibitor | 7580 | 602 | 1.94E−6 | 389 | 0.44 | 991 |  | 
CCCC(C)/C=C/C=C/[C@H](OC)[C@@H](C)[C@@H](OC)[C@@H](C)CCc1oc2c(O)c(OC)cc(OC)c2c(=O)c1C (stereo partly shown) [Compound I] |  |  | 226 |  |  | 4150 | 92.3 | 5.28E−7 | 153 |  | 867 | 3.20E−6 | 5.84E−6
